# Data from paper PMC8591201, “Anti-Tumor Activity of AZD4547 Against NTRK1 Fusion Positive Cancer Cells Through Inhibition of NTRKs” (Frontiers in Oncology, 2021).
# Columns and labels:
# Assay in all cases: cells
# Parameters in all cases: Anti-proliferation, 10-point dose response, CellTiter-Glo luminescence (MTT stated for KM12(Luc)), GI50 fitted in Prism
# T98G = details: Homo sapiens, T98G, 72 h, read-out: GI50 (µM) a
# U937 = details: Homo sapiens, U-937, 72 h, read-out: GI50 (µM) a
# HL-60 = details: Homo sapiens, HL-60, 72 h, read-out: GI50 (µM) a
# HEP3B = details: Homo sapiens, Hep3B, 72 h, read-out: GI50 (µM) a
# A172 = details: Homo sapiens, A 172, 72 h, read-out: GI50 (µM) a
# U251 = details: Homo sapiens, U-251, 72 h, read-out: GI50 (µM) a
# A549 = details: Homo sapiens, A549, 72 h, read-out: GI50 (µM) a
# U-87-MG = details: Homo sapiens, U-87 MG, 72 h, read-out: GI50 (µM) a
# U138 = details: KM12-Luc, 72 h, read-out: GI50 (µM) a
# HeLa = details: Homo sapiens, HeLa, 72 h, read-out: GI50 (µM) a
# Molm-14 = details: Homo sapiens, MOLM-14, 72 h, read-out: GI50 (µM) a
# MOLT-4 = details: Homo sapiens, MOLT-4, 72 h, read-out: GI50 (µM) a
structure (smiles),measurement,setting,value
COc1cc(CCc2cc(NC(=O)c3ccc(N4C[C@@H](C)N[C@@H](C)C4)cc3)n[nH]2)cc(OC)c1 [AZD4547],GI50,T98G,5.21 µM
same,GI50,U937,12.2 µM
same,GI50,HL-60,9.31 µM
same,GI50,HEP3B,19.7 µM
same,GI50,A172,2.18 µM
same,GI50,U251,11.6 µM
same,GI50,A549,11.6 µM
same,GI50,U-87-MG,8.94 µM
same,GI50,U138,8.48 µM
same,GI50,HeLa,4.38 µM
same,GI50,Molm-14,1.25 µM
same,GI50,MOLT-4,6.59 µM
